Where only a bound is given, the exact number is not on record here.

The test system of this assay is TEAD reporter-containing human breast cancer cell line MCF7. The assay is described as follows: TEAD reporter (luciferase) assay. Type of assay: cell-based. Particulars: TEAD reporter MCF7 cells, 24 hours treatment, 1% serum media. On the procedure:
The TEAD reporter-containing human breast cancer cell line MCF7 (60618, BPS bioscience) was cultured according to the manufacturer's instructions. Cells were plated in 96-well white plates at a density of 30,000 per well and incubated overnight. The following day cells were treated with small molecules in 1% serum media (0.1% v/v DMSO). After 24 hours of the treatment, cell viability was evaluated by using CCK-8 reagent (CK04, Dojindo) and measuring absorbance at 450 nm. Then, the assay for luciferase activity was performed using Dual-Glo® Luciferase Assay System (Promega, E2940) following the manufacturer's instructions. Luminescence intensity was measured and the potency of the compounds was determined by IC50 value generated from non-linear regression analysis of the dose-response curves.
IC50 for luciferase activity are shown in the Table 1 below and designated within the following ranges. [+++: ≤0.1 μM, ++: >0.1 μM to ≤1 μM, +: >1 μM to ≤10 μM, −: >10 μM]

The term IC50 denotes the point on the concentration scale where inhibition reaches its midpoint. Low readings indicate greater potency in that assay, high ones weaker potency in that assay. Compound `C=CC(=O)Nc1cnc2c(c1)c(-c1cc(C)c(O)c(C)c1)cn2C` [Example 113, N-(3-(4-Hydroxy-3,5-dimethylphenyl)-1-methyl-1H-pyrrolo[2,3-b]pyridin-5-yl)acrylamide] gave an IC50 greater than 10000 nM.
For the compound `C=CC(=O)Nc1cnc2c(c1)c(/C=C/c1ccsc1)cn2C` [Example 59, (E)-N-(1-Methyl-3-(2-(thiophen-3-yl)vinyl)-1H-pyrrolo[2,3-b]pyridin-5-yl)acrylamide], the IC50 was 100 to 1000 nM.
As for `Cn1cc(/C=C/c2ccc(Cl)cc2)c2cc(NS(C)(=O)=O)cnc21` [Example 117, (E)-N-(3-(4-Chlorostyryl)-1-methyl-1H-pyrrolo[2,3-b]pyridin-5-yl) methanesulfonamide], the concentration for half-maximal inhibition (IC50) fell in the range of 100 to 1000 nM.
In the case of `C=CC(=O)Nc1cnc2c(c1)c(/C=C/c1ccc3c(c1)OCCO3)cn2C` [Example 61, (E)-N-(3-(2-(2,3-Dihydrobenzo[b][1,4]dioxin-6-yl)vinyl)-1-methyl-1H-pyrrolo[2,3-b]pyridin-5-yl)acrylamide], the IC50 is 1000 to 10000 nM.
On to `C=CC(=O)N(CC(=O)O)c1cnc2c(c1)c(/C=C/c1ccc(Cl)cc1)cn2C` [Example 65, (E)-N-Acryloyl-N-(3-(4-chlorostyryl)-1-methyl-1H-pyrrolo[2,3-b]pyridin-5-yl)glycine], for which the IC50 is greater than 10000 nM.
`C=CC(=O)Nc1ccc2c(c1)c(/C=C/c1ccc(Cl)cc1)cn2C(C)=O` [Example 75, (E)-N-(1-Acetyl-3-(4-chlorostyryl)-1H-indol-5-yl)acrylamide] showed an IC50 greater than 10000 nM.
The figure for `C=CC(=O)Nc1cnc2c(c1)c(-c1ccc(CCCC)cc1)cn2C` [Example 110, N-(3-(4-Butylphenyl)-1-methyl-1H-pyrrolo[2,3-b]pyridin-5-yl)acrylamide] is 100 to 1000 nM.
The compound `C=CC(=O)Nc1cnc2ccn(Cc3ccc(C(F)(F)F)cc3)c2c1` [Example 76, N-(1-(4-(Trifluoromethyl)benzyl)-1H-pyrrolo[3,2-b]pyridin-6-yl)acrylamide] showed an IC50 of no more than 100 nM.
Compound `C=CC(=O)Nc1cnc2c(c1)c(-c1ccc(SC)cc1)cn2C` [Compound 55, N-(1-Methyl-3-(4-(methylthio)phenyl)-1H-pyrrolo[2,3-b]pyridin-5-yl)acrylamide] displayed an IC50 of 100 to 1000 nM.
The figure for `C=CC(=O)Nc1cnc2c(c1)c(C1=CCCCC1)cn2C` [Example 101, N-(3-(Cyclohex-1-en-1-yl)-1-methyl-1H-pyrrolo[2,3-b]pyridin-5-yl)acrylamide] is 1000 to 10000 nM; for `Cn1cc(/C=C/c2ccc(Cl)cc2)c2cc(NC(=O)CC#N)cnc21` [Example 115, (E)-N-(3-(4-chlorostyryl)-1-methyl-1H-pyrrolo[2,3-b]pyridin-5-yl)-2-cyanoacetamide] it is greater than 10000 nM.
The same measure for `C=CC(=O)Nc1cnc2c(c1)c(-c1cccc(C(F)(F)F)c1)cn2C` [Compound 54, N-(1-Methyl-3-(3-(trifluoromethyl)phenyl)-1H-pyrrolo[2,3-b]pyridin-5-yl)acrylamide]: no more than 100 nM.
On to `C=CC(=O)Nc1cnc2c(c1)c(/C=C/C1CCC(F)(F)CC1)cn2C1CCCC1` [Compound 9, (E)-N-(1-Cyclopentyl-3-(2-(4,4-difluorocyclohexyl)vinyl)-1H-pyrrolo[2,3-b]pyridin-5-yl)acrylamide], for which the IC50 was no more than 100 nM.
For the compound `C=CC(=O)Nc1ccc2c(c1)c(C1=CCC(C)(C)CC1)cn2C` [Example 124, N-(3-(4,4-dimethylcyclohex-1-en-1-yl)-1-methyl-1H-indol-5-yl)acrylamide], the concentration for half-maximal inhibition (IC50) is no more than 100 nM.
The figure for `C=CC(=O)Nc1cnc2c(c1)c(-c1ccc(CCCCCCCCC)cc1)cn2C` [Example 112, N-(1-Methyl-3-(4-nonylphenyl)-1H-pyrrolo[2,3-b]pyridin-5-yl)acrylamide] is greater than 10000 nM; for `C=CC(=O)Nc1cnc2c(c1)c(CC1CCCCC1)cn2C` [Example 138, N-(3-(Cyclohexylmethyl)-1-methyl-1H-pyrrolo[2,3-b]pyridin-5-yl)acrylamide] it is no more than 100 nM.
`C=CC(=O)Nc1cnc2c(c1)c(/C=C/c1cccs1)cn2C` [Example 82, (E)-N-(1-Methyl-3-(2-(thiophen-2-yl)vinyl)-1H-pyrrolo[2,3-b]pyridin-5-yl)acrylamide] showed an IC50 of 100 to 1000 nM.
For `C=CC(=O)Nc1ccc2c(c1)c(/C=C/c1ccc(Cl)cc1)nn2C1CCCC1` [Compound 8, (E)-N-(3-(4-Chlorostyryl)-1-cyclopentyl-1H-indazol-5-yl)acrylamide], the half-inhibitory concentration (IC50) lay within 1000 to 10000 nM.
For the compound `C=CC(=O)Nc1ccc2c(/C=C/c3ccc(Cl)cc3)cn(C)c2c1` [Compound 12, (E)-N-(3-(4-Chlorostyryl)-1-methyl-1H-indol-6-yl)acrylamide], the IC50 lay in the range of 100 to 1000 nM.
The figure for `C=CC(=O)Nc1cnc2c(c1)c(-c1ccc(C#N)cc1)cn2C` [Example 57, N-(3-(4-Cyanophenyl)-1-methyl-1H-pyrrolo[2,3-b]pyridin-5-yl)acrylamide] is 1000 to 10000 nM.
In turn, `C=CS(=O)(=O)Nc1cnc2c(c1)c(/C=C/c1ccc(Cl)cc1)cn2C` [Example 116, (E)-N-(3-(4-Chlorostyryl)-1-methyl-1H-pyrrolo[2,3-b]pyridin-5-yl) ethenesulfonamide] had an IC50 of 100 to 1000 nM.
`C=CC(=O)Nc1ccc2c(c1)c(/C=C/C1CCC(F)(F)CC1)nn2C1CCCC1` [Compound 7, (E)-N-(1-Cyclopentyl-3-(2-(4,4-difluorocyclohexyl)vinyl)-1H-indazol-5-yl)acrylamide]: the concentration for half-maximal inhibition (IC50) lay in the range of 100 to 1000 nM.
The figure for `C=CC(=O)Nc1cnc2ccn(Cc3ccc(F)cc3)c2c1` [Example 78, N-(1-(4-Fluorobenzyl)-1H-pyrrolo[3,2-b]pyridin-6-yl)acrylamide] is 100 to 1000 nM.
As to `CN(C)C/C=C/C(=O)Nc1cnc2c(c1)c(-c1ccc(C(F)(F)F)cc1)cn2C` [Example 120, (E)-4-(Dimethylamino)-N-(1-methyl-3-(4-(trifluoromethyl)phenyl)-1H-pyrrolo[2,3-b]pyridin-5-yl) but-2-enamide 2,2,2-trifluoroacetate], the IC50 was in the range of 1000 to 10000 nM.
Compound `C=CC(=O)Nc1cnc2c(c1)c(/C=C/c1ccccc1)cn2C` [Compound 45, (E)-N-(1-Methyl-3-styryl-1H-pyrrolo[2,3-b]pyridin-5-yl)acrylamide] gave an IC50 of 100 to 1000 nM.
The same measure for `C=CC(=O)Nc1cnc2c(c1)c(Cc1cccc(Cl)c1)cn2C` [Example 136, N-(3-(3-Chlorobenzyl)-1-methyl-1H-pyrrolo[2,3-b]pyridin-5-yl)acrylamide]: no more than 100 nM.
For the compound `C=CC(=O)Nc1ccc2c(c1)c(/C=C/c1ccc(Cl)cc1)nn2C(C)C` [Compound 6, (E)-N-(3-(4-Chlorostyryl)-1-isopropyl-1H-indazol-5-yl)acrylamide], the IC50 was greater than 10000 nM.
With `C=CC(=O)Nc1ccc2c(c1)c(C1=CCC(OC)CC1)cn2C` (centres unmarked) [Example 125, N-(3-(4-Methoxycyclohex-1-en-1-yl)-1-methyl-1H-indol-5-yl)acrylamide], the IC50 lay in the range of 1000 to 10000 nM.
The same measure for `C=CC(=O)Nc1ccc2c(c1)c(/C=C/c1ccc(F)cc1)cn2C(C)C` [Compound 29, (E)-N-(3-(4-Fluorostyryl)-1-isopropyl-1H-indol-5-yl)acrylamide]: greater than 10000 nM.
The figure for `C=CC(=O)Nc1cnc2c(c1)c(-c1ccc(F)c(Cl)c1)cn2C(F)F` [Example 135, N-(3-(3-Chloro-4-fluorophenyl)-1-(difluoromethyl)-1H-pyrrolo[2,3-b]pyridin-5-yl)acrylamide] is 1000 to 10000 nM; for `C=CC(=O)Nc1cnc2c(c1)c(-c1ccc(Cl)c(F)c1)cn2C(F)F` [Example 133, N-(3-(4-Chloro-3-fluorophenyl)-1-(difluoromethyl)-1H-pyrrolo[2,3-b]pyridin-5-yl)acrylamide] it is 1000 to 10000 nM; for `C=CC(=O)Nc1cnc2c(c1)c(-c1cccc(C#N)c1)cn2C` [Compound 56, N-(3-(3-Cyanophenyl)-1-methyl-1H-pyrrolo[2,3-b]pyridin-5-yl)acrylamide] it is 1000 to 10000 nM.
The figure for `C=CC(=O)Nc1cnc2c(c1)c(-c1cccc(Oc3ccccc3)c1)cn2C` [Example 94, N-(1-Methyl-3-(3-phenoxyphenyl)-1H-pyrrolo[2,3-b]pyridin-5-yl)acrylamide] is 100 to 1000 nM; for `C=CC(=O)Nc1ccc2c(c1)c(/C=C/c1ccc(Cl)cc1)cn2C1CCCC1` [Compound 11, (E)-N-(3-(4-Chlorostyryl)-1-cyclopentyl-1H-indol-5-yl)acrylamide] it is 1000 to 10000 nM.
`C=CC(=O)Nc1cnc2c(c1)c(/C=C/c1ccc(Cl)cc1)cn2C(C)C` [Compound 20, (E)-N-(3-(4-Chlorostyryl)-1-isopropyl-1H-pyrrolo[2,3-b]pyridin-5-yl)acrylamide] gave an IC50 of 1000 to 10000 nM.
